The numbers were not newly measured in patent US7169813B2, “4-oxo-fenretinide, administered alone and in combination with fenretinide, as preventive and therapeutic agent for cancer” (Fondazione IRCCS “Istituto Nazionale Dei Tumori”, priority 2004, dated 2007), which cites them from elsewhere.

For data set [1], the system named is different tumor cell lines. Conditions: cited from earlier work.
The subject of data set [2] is human ovarian carcinoma. Conditions: mice bearing a human ovarian carcinoma, cited from earlier work.

In the case of `COc1ccc(NC(=O)\C=C(C)/C=C/C=C(C)\C=C\C2=C(C)CCCC2(C)C)cc1` (stereo in doubt) [4-MPR, N-(4-methoxyphenyl)retinamide], in data set [1], the inhibiting proliferation entry is on record as “ineffective”. Besides, the antitumor effect result in data set [2] is recorded as “no antitumor effect”. In data set [2] (with 4-HPR), the “effect on 4-HPR activity” value was “did not increase 4-HPR activity”.
